Laboratory results as given in BindingDB's records for patent US20250313563 (The Broad Institute, 2025).
Values joined by “and” are separate entries in the source; they are usually repeats but may differ in a detail not shown here. Equal entries are not always repeated.

Experiments:
[1] = target: Glycogen synthase kinase-3 beta (Homo sapiens, UniProt P49841); experiment: TR-FRET Assay
Procedure, shortened: (§1)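 Compound was preincubated 30 min in assay buffer before the kinase reaction, which was quenched with EDTA. Phosphorylation was detected by TR-FRET after adding a solution of 40 nM streptavidin-d2 and 2 nM Tb-labelled anti-pSer641 antibody.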

[2] = target: Glycogen synthase kinase-3 alpha (Homo sapiens, UniProt P49840); experiment: TR-FRET Assay
Glycogen synthase kinase-3 alpha, sequence (P49840 whole entry): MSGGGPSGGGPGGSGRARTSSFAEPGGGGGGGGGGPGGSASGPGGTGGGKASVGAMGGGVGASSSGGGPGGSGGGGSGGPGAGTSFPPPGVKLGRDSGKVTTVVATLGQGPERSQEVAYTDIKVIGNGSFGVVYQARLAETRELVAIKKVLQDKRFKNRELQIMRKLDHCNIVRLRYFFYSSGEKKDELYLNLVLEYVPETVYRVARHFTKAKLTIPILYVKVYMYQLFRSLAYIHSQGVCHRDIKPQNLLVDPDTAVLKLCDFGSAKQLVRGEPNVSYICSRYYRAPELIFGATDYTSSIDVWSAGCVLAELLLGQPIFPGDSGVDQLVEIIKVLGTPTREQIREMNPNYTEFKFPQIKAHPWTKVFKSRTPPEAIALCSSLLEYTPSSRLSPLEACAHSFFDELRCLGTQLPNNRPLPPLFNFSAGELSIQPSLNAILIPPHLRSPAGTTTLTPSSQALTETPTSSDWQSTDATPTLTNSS
Procedure, shortened: as §1

Glycogen synthase kinase-3 beta, sequence (P49841 whole entry): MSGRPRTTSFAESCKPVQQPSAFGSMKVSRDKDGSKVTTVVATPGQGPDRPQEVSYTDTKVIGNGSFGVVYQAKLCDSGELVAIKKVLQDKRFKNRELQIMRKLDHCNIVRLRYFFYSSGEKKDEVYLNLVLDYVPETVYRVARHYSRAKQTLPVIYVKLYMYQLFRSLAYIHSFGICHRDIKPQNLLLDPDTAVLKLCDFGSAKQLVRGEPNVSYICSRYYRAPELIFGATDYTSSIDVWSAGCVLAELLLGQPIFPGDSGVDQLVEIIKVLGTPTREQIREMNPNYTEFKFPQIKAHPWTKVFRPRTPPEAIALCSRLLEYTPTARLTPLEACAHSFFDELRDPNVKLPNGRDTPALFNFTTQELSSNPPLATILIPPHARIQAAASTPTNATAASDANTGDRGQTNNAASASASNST

Structure (SMILES)	IC50 [1]	IC50 [2]
CC[C@@]1(c2cccc(C(F)(F)F)c2)C2=CN=NC2NC2=C1C(=O)N(c1ccc(F)cc1)CC2 (some centres not stated) [US20250313563, Compound 948225]	> 5000 nM	1000 to 5000 nM
CC[C@@]1(c2cccc(C(F)(F)F)c2)C2=CN=NC2NC2=C1C(=O)N(c1ccc(OC)cc1)CC2 (some centres not stated) [US20250313563, Compound 948227]	> 5000 nM	1000 to 5000 nM
CCC1(c2cccc(C(F)(F)F)c2)C2=CN=NC2NC2=C1C(=O)N(c1cncnc1)CC2 (configuration not stated) [US20250313563, Compound 948238]	100 to 1000 nM	< 100 nM
CCC1(c2cccc(C(F)(F)F)c2)C2=CN=NC2NC2=C1C(=O)N(c1ccc(C)cc1)CC2 (configuration not stated) [US20250313563, Compound 948241]	100 to 1000 nM	< 100 nM
CCC1(c2cccc(OC)c2)C2=C(N=NC2)NC2=C1C(=O)NC(C)(C)C2 (configuration not stated) [US20250313563, Compound 948296]	1000 to 5000 nM	100 to 1000 nM
CCC1(c2cccc(-c3ccnc(C)c3)c2)C2=C(CC(C)(C)NC2=O)NC2N=NC(F)=C21 (configuration not stated) [US20250313563, Compound 948299]	1000 to 5000 nM	< 100 nM
CCC1(c2cccc(-c3cnn(C)c3)c2)C2=C(CC(C)(C)NC2=O)NC2N=NC(F)=C21 (configuration not stated) [US20250313563, Compound 948300]	100 to 1000 nM	< 100 nM
CCC1(c2cccc(-c3ccnc(C)c3)c2)C2=CN=NC2NC2=C1C(=O)N(C)C(C)(C)C2 (configuration not stated) [US20250313563, Compound 948302]	100 to 1000 nM	< 100 nM
CC[C@@]1(c2cccc(-c3ccnc(C)c3F)c2)C2=CN=NC2NC2=C1C(=O)NC(C)(C)C2 (some centres not stated) [US20250313563, Compound 948306]	100 to 1000 nM	< 100 nM
CC[C@]1(c2cccc(-c3cn(C)nc3C)c2)C2=C(CC(C)(C)NC2=O)NC2N=NC(C(F)(F)F)=C21 (some centres not stated) [US20250313563, Compound 948309]	> 5000 nM	1000 to 5000 nM
CC[C@]1(c2cccc(-c3ccnc(C)c3F)c2)C2=CN=NC2NC2=C1C(=O)NC(C)(C)C2 (some centres not stated) [US20250313563, Compound 948311]	1000 to 5000 nM	100 to 1000 nM
CC[C@@]1(c2cccc(C3=CN=NC3)c2)C2=C(CC(C)(C)NC2=O)NC2N=NC(C(F)(F)F)=C21 (some centres not stated) [US20250313563, Compound 948312]	100 to 1000 nM	< 100 nM
CC[C@]1(c2cccc(-c3ccnc4c3CCC4)c2)C2=CN=NC2NC2=C1C(=O)NC(C)(C)C2 (some centres not stated) [US20250313563, Compound 948313]	< 100 nM and 1000 to 5000 nM	< 100 nM and 100 to 1000 nM
CC(=O)N1CC[C@]2(C1)C[C@@]1(CO2)C2=C(N=NC2)NC2=C1C(=O)CC(C)(C)C2 [US20250313563, Compound 948319]	100 to 1000 nM	< 100 nM
CC(=O)N1CC[C@@]2(C1)C[C@@]1(CO2)C2=C(N=NC2)NC2=C1C(=O)CC(C)(C)C2 [US20250313563, Compound 948320]	1000 to 5000 nM	100 to 1000 nM
CC[C@@]1(c2cccc(-c3ccnn3C)c2)C2=CN=NC2NC2=C1C(=O)NC1(CCC1)C2 (some centres not stated) [US20250313563, Compound 948358]	< 100 nM and 1000 to 5000 nM	< 100 nM and 100 to 1000 nM
CC[C@@]1(c2cccc(-c3ccncc3C)c2)C2=CN=NC2NC2=C1C(=O)NC1(CCOCC1)C2 (some centres not stated) [US20250313563, Compound 948359]	< 100 nM and 1000 to 5000 nM	< 100 nM and 100 to 1000 nM

Structure (SMILES)	IC50 [1]	IC50 [2]
CCc1cc(-c2cccc([C@@]3(CC)C4=CN=NC4NC4=C3C(=O)NC(C)(C)C4)c2)ccn1 (some centres not stated) [US20250313563, Compound 948360]	> 5000 nM	1000 to 5000 nM
CC[C@@]1(c2cccc(-c3ccnc(C)c3Cl)c2)C2=CN=NC2NC2=C1C(=O)NC(C)(C)C2 (some centres not stated) [US20250313563, Compound 948361]	< 100 nM and 1000 to 5000 nM	< 100 nM and 100 to 1000 nM
CC[C@]1(c2cccc(C3=C4CC=C(Cl)C=C4N=CC3)c2)C2=CN=NC2NC2=C1C(=O)NC(C)(C)C2 (some centres not stated) [US20250313563, Compound 948362]	> 5000 nM	> 5000 nM
CC[C@]1(c2cccc(-c3c(F)cncc3Cl)c2)C2=CN=NC2NC2=C1C(=O)NC(C)(C)C2 (some centres not stated) [US20250313563, Compound 948363]	> 5000 nM	1000 to 5000 nM
CC[C@]1(c2cccc(-c3ccnn3C)c2)C2=CN=NC2NC2=C1C(=O)N[C@]1(CCCOC1)C2 (some centres not stated) [US20250313563, Compound 948365]	> 5000 nM	1000 to 5000 nM
CC[C@@]1(c2cccc(C3=C4CC=C(Cl)C=C4N=CC3)c2)C2=CN=NC2NC2=C1C(=O)NC(C)(C)C2 (some centres not stated) [US20250313563, Compound 948368]	100 to 1000 nM	< 100 nM
CC[C@]1(c2cccc(-c3ccnc(C)c3Cl)c2)C2=CN=NC2NC2=C1C(=O)NC(C)(C)C2 (some centres not stated) [US20250313563, Compound 948369]	> 5000 nM	> 5000 nM
CCc1cc(-c2cccc([C@]3(CC)C4=CN=NC4NC4=C3C(=O)NC(C)(C)C4)c2)ccn1 (some centres not stated) [US20250313563, Compound 948370]	100 to 1000 nM	< 100 nM
CC[C@@]1(c2cccc(-c3c(F)cncc3Cl)c2)C2=CN=NC2NC2=C1C(=O)NC(C)(C)C2 (some centres not stated) [US20250313563, Compound 948371]	< 100 nM and 100 to 1000 nM	< 100 nM and 100 to 1000 nM
CC[C@]1(c2cccc(C(F)(F)F)c2)C2=CN=NC2NC2=C1C(=O)N(c1cncnc1)CC2 (some centres not stated) [US20250313563, Compound 948379]	100 to 1000 nM	100 to 1000 nM
Cc1cc([C@H]2CC[C@@]3(CC2)C2=C(N=NC2)NC2=C3C(=O)CC(C)(C)C2)ccn1 [US20250313563, Compound 948416]	100 to 1000 nM	< 100 nM
CC[C@]1(c2cccc(-c3c(C)nn(C)c3C)c2)C2=C(CC(C)(C)NC2=O)NC2N=NC(C(F)(F)F)=C21 (some centres not stated) [US20250313563, Compound 948417]	1000 to 5000 nM	100 to 1000 nM
CC[C@@]1(c2cccc(-c3ccnc(C)c3)c2)C2=C(CC(C)(C)NC2=O)NC2N=NC(C)=C21 (some centres not stated) [US20250313563, Compound 948420]	100 to 1000 nM	< 100 nM
CC[C@@]1(c2cccc(S(C)(=O)=O)c2)C2=C(CC(C)(C)NC2=O)NC2N=NC(C(F)(F)F)=C21 (some centres not stated) [US20250313563, Compound 948422]	100 to 1000 nM	100 to 1000 nM
CC[C@@]1(c2cccc(S(=O)(=O)C(C)C)c2)C2=C(CC(C)(C)NC2=O)NC2N=NC(C(F)(F)F)=C21 (some centres not stated) [US20250313563, Compound 948423]	100 to 1000 nM	< 100 nM
CC[C@@]1(c2cccc(-c3ccncc3C)c2)C2=CN=NC2NC2=C1C(=O)NC1(CCC1)C2 (some centres not stated) [US20250313563, Compound 948512]	< 100 nM and 1000 to 5000 nM	< 100 nM and 100 to 1000 nM
CC[C@]1(c2cccc(-c3ccnc(C)c3)c2)C2=C(CC3(CCOCC3)NC2=O)NC2N=NC(C)=C21 (some centres not stated) [US20250313563, Compound 948513]	100 to 1000 nM	< 100 nM

Results, then the compound that gave them:

IC50 [1]	IC50 [2]	Structure (SMILES)
100 to 1000 nM	< 100 nM	CC[C@@]1(c2cccc(C(F)(F)F)c2)C2=C(CCN(c3ccc(OC)cc3)C2=O)NC2N=NC(C)=C21 (some centres not stated) [US20250313563, Compound 948226]
< 100 nM	< 100 nM	CCC1(c2cccc(-c3ccnc(C)c3F)c2)C2=C(CC(C)(C)NC2=O)NC2N=NC(C(F)(F)F)=C21 (configuration not stated) [US20250313563, Compound 948297]
< 100 nM	< 100 nM	CC1(C)CC(=O)C2=C(C1)NC1=C(CN=N1)C21CN(c2ccccc2)C1 [US20250313563, Compound 948298]
< 100 nM	< 100 nM	CCC1(c2cccc(-c3cn(C)nc3C)c2)C2=C(CC(C)(C)NC2=O)NC2N=NC(F)=C21 (configuration not stated) [US20250313563, Compound 948301]
< 100 nM	< 100 nM	CCC1(c2cccc(S(=O)(=O)C3CC3)c2)C2=CN=NC2NC2=C1C(=O)N(C)C(C)(C)C2 (configuration not stated) [US20250313563, Compound 948303]
< 100 nM	< 100 nM	CCC1(c2cccc(-c3cn(C)nc3C)c2)C2=CN=NC2NC2=C1C(=O)N(C)C(C)(C)C2 (configuration not stated) [US20250313563, Compound 948304]
< 100 nM	< 100 nM	CCC1(c2cccc(C(F)F)c2)C2=C(CC(C)(C)NC2=O)NC2N=NC(C(F)(F)F)=C21 (configuration not stated) [US20250313563, Compound 948305]
< 100 nM	< 100 nM	CC[C@]1(c2cccc(C3=CN=NC3)c2)C2=C(CC(C)(C)NC2=O)NC2N=NC(C(F)(F)F)=C21 (some centres not stated) [US20250313563, Compound 948307]
< 100 nM	< 100 nM	Cc1cc([C@H]2CC[C@]3(CC2)C2=C(N=NC2)NC2=C3C(=O)CC(C)(C)C2)ccn1 [US20250313563, Compound 948415]
< 100 nM	< 100 nM	CC[C@]1(c2cccc(S(C)(=O)=O)c2)C2=C(CC(C)(C)NC2=O)NC2N=NC(C(F)(F)F)=C21 (some centres not stated) [US20250313563, Compound 948418]
< 100 nM	< 100 nM	CC[C@]1(c2cccc(S(=O)(=O)C(C)C)c2)C2=C(CC(C)(C)NC2=O)NC2N=NC(C(F)(F)F)=C21 (some centres not stated) [US20250313563, Compound 948419]
< 100 nM	< 100 nM	CC[C@@]1(c2cccc(-c3c(C)nn(C)c3C)c2)C2=C(CC(C)(C)NC2=O)NC2N=NC(C(F)(F)F)=C21 (some centres not stated) [US20250313563, Compound 948421]
< 100 nM	< 100 nM	CC(=O)N1C[C@]2(C[C@@]3(CO2)C2=C(N=NC2)NC2=C3C(=O)CC(C)(C)C2)[C@H]1C [US20250313563, Compound 948437]
< 100 nM	< 100 nM	CC(=O)N1C[C@@]2(C[C@@]3(CO2)C2=C(N=NC2)NC2=C3C(=O)CC(C)(C)C2)[C@@H]1C [US20250313563, Compound 948438]
< 100 nM	< 100 nM	CC(=O)N1C[C@]2(C[C@]3(CO2)C2=C(N=NC2)NC2=C3C(=O)CC(C)(C)C2)[C@H]1C [US20250313563, Compound 948439]
< 100 nM	< 100 nM	CC(=O)N1C[C@@]2(C[C@]3(CO2)C2=C(N=NC2)NC2=C3C(=O)CC(C)(C)C2)[C@@H]1C [US20250313563, Compound 948440]
< 100 nM	< 100 nM	CC[C@@]1(c2cccc(-c3ccnc4ccc(Cl)cc34)c2)C2=CN=NC2NC2=C1C(=O)N(C)C(C)(C)C2 (some centres not stated) [US20250313563, Compound 948517]
